In patent publication US10294212B2 (CURADEV PHARMA PRIVATE LTD., priority 2013, dated 2019):
Like-named read-outs stand apart in the source and are kept apart here.

How the values were obtained:
CT-26 tumor cells = assay: Antitumor activity in syngeneic CT26/Balb/C tumor model; format: in vivo, Balb/c mice; details: for reduction of tumor growth: vs control animals
Method: Tumor volume reduction by the test compounds was evaluated in a syngeneic CT26/Balb/C tumor model as described below. Balb/c mice were purchased from Vivo Bio Tech, Hyderabad, India, and housed in sterile conditions using an individually ventilated caging system manufactured by Citizen Industries Limited, Ahmedabad, India. Mice were quarantined for at least 7 days before experimentation.
Mouse colorectal tumor forming cells, CT-26 cells (ATCC, USA), were cultured in DMEM and 10% FBS medium supplemented with lx non-essential amino acid (HiMedia) in an incubator maintained at 37QC with 95% humidity and 5% CO2. One million (1×10^6) live syngeneic CT-26 cells suspended in 0.2 ml of […] were injected subcutaneously in the right flank of each Balb/c mouse (age 6-8 weeks, weight: about 18-20 g) on day 1 under anesthesia. Eight to ten mice were used per experimental group. Subcutaneous cells formed localized tumors. Animals were visually inspected twice a day. Tumor measurements were initiated 7 days post injection using Vernier calipers. Tumor sizes at day 7 ranged typically from 80-150 mm^3. Tumor dimensions were subsequently measured every 3 to 4 days and tumor volume was determined. Assuming tumors to be ellipsoid, tumor volume was calculated using the formula: V=(D×d×d)/2
Where D is longest diameter in mm, and d is shortest diameter in mm.
When the average tumor volume in the mice reached 100-120 mm^3, tumor bearing mice were randomized for treatment with either test compound or vehicle alone. Test compounds were formulated generally in normal saline comprising Polyethylene Glycol (PEG400), Propylene glycol (PG) and Dimethyl Acetamide (DACM) at pH 4.5-5.0 and dosed orally at ranges 40-75 mg/kg (dose volume—5 mL/kg) twice a day. Solutions of the compounds were prepared immediately before dosing the animals. In general, tumor volume was measured at various times post-dosing from day 1 to day 34.
A non-limiting example is provided. Tumor bearing mice were dosed orally twice a day at 40 mg/kg body weight with either vehicle control or test compound 2 formulated in 30% Polyethylene Glycol (PEG-400), 20% Propylene glycol (PG) in normal saline. Tumors were measured and tumor volumes were determined at 1, 4, 6, 9, 11, and 14 days after the first dose as described above. Animals were sacrificed on day 14. Tumor and blood samples were harvested for further analysis. Just prior to animal sacrifice, blood was drawn retro-orbitally into a tube containing 0.2% EDTA for plasma collection. The harvested tumors were weighed and snap frozen in liquid nitrogen immediately. Plasma KYN concentrations are measured for pharmacokinetic analysis using LC/MS/MS using an API4000 mass spectrometer (Applied Biosystems) coupled to a Shimadzu Prominence LC system fitted with a C18 column.

[1] = biological target: Human indoleamine 2,3-dioxygenase-2 (hIDO2) (Homo sapiens (Human), UniProt Q6ZQW0); assay: In-vitro IDO2 enzyme assay; format: biochemical
Sequence of Human indoleamine 2,3-dioxygenase-2 (hIDO2) (Q6ZQW0 whole entry): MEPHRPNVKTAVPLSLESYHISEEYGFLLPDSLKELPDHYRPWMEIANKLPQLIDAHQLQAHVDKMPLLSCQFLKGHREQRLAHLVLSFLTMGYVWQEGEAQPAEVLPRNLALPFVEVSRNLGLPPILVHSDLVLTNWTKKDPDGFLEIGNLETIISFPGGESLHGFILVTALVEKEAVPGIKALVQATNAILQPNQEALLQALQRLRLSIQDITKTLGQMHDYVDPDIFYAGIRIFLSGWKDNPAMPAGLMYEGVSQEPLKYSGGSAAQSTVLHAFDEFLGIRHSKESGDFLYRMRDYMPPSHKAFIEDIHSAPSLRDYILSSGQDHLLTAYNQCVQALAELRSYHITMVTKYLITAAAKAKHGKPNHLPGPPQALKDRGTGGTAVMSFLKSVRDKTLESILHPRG
Source text: Human indoleamine 2,3-dioxygenase-2 (hIDO2) catalyzes the oxidative cleavage of the pyrrole ring of the indole nucleus of tryptophan to yield N-formylkynurenine which can be converted to kynurenine (KYN) by deformylation. hIDO2 with an C-terminal His tag (Sino Biological Inc (China)) was expressed in E. coli cells and the protein was purified using standard methods well known in the art. Unless otherwise stated, all materials were procured from Sigma Aldrich, Mo., USA.
The assay monitoring the conversion of L-tryptophan to KYN was carried out as follows. hIDO2 (160 nM) was incubated with tryptophan (5000 04) in the presence of ascorbic acid (20 mM), methylene blue (10 04) and catalase (100 μg/mL) in potassium phosphate buffer (100 mM; pH 7.5) at 37 degrees C. for 30 min. The reaction was terminated with 30% trichloroacetic acid (TCA) and further incubated at 65 degrees C. for 15 min to fully convert N-formylkynurenine to KYN. The reaction mixture was then centrifuged to remove sediments, and the KYN in the supernatant was measured by UV-visible absorption spectroscopy at 360 nm using a Waters HPLC system fitted with a C-18 column or by LC/MS/MS (C. J. D Austin et. Al, Amino Acid 2009, 565-578).
Percent inhibition at each concentration of test compounds was determined by determining the decrease in KYN with reference to the reaction control with 1% DMSO vehicle. Data were analyzed using nonlinear regression to generate IC50 values using Graph Pad Prism® 5. Compounds 2 and 184 were tested as described above.

[2] = test system: plasma and tumor tissue KYN; assay: Tumor penetration: KYN levels in tumor and plasma, CT26/Balb/C tumor model; format: in vivo, Balb/c mice; details: 50 mg/kg oral BID 4 days, vs vehicle; for plasma KYN levels reduced: 2 hours post-dosing
Method: i. Tumor penetration in mice: Tumor penetration of test compounds and KYN levels in tumor and plasma of treated animals were determined in a syngeneic CT26/Balb/C tumor model. Briefly, three to four tumor bearing Balb/c mice (tumor size=150-200 mm^3) were dosed twice a day orally for 4 days with test compound (for e.g., compound 2) at 50 mg/kg formulated in carboxymethyl cellulose (CMC). A vehicle control was included along with the test compounds. Blood samples were collected by retro-orbital bleed or terminal cardiac bleed into tubes containing heparin just before the final dose and at two hours after the final dose. Animals were sacrificed two hours post-final dose. Tumors were harvested and weighed immediately. Tumors were then snap frozen in liquid nitrogen, pulverized and dissolved in homogenization buffer (chilled acetonitrile/water/formic acid (10:90:0.1 v/v/v) to extract test compounds and kynurenine, KYN.
Plasma and tumor tissue KYN levels were reduced in test compound treated animals compared to control vehicle-treated animals (TABLE 7). For example, compounds 2 and 97 each reduced tumor KYN levels by 81%. At 2 hours post-dosing, the plasma KYN levels were reduced by 62% and 67% respectively in the animals treated with compound 2 or 97 compared to the control animals dosed with vehicle alone. The concentration of test compounds in the tumor tissue extracts is determined by LC/MS/MS using an API 4000 or AP15500 Qtrap mass spectrometer.

[3] = IDO2 Enzyme assay, read-out: IC50 values IDO2
[4] = IDO2 enzyme assay, read-out: IDO2 IC50

Row | Structure (SMILES) | tumor growth (CT-26 tumor cells; 40 mg/kg oral BID, over 14 days, vs vehicle) | IC50 [1, 3] | IC50 [1, 4] | tumor KYN levels reduced [2] | plasma KYN levels reduced [2] | reduction of tumor growth (CT-26 tumor cells; 75 mg/kg oral BID) | reduction of tumor growth (CT-26 tumor cells; 50 mg/kg oral BID)
1 | Nc1oc2cnccc2c1Nc1ccc(F)c(Cl)c1 [Compound 2, N^3-(3-Chloro-4-fluoro-phenyl)-furo[2,3-c]pyridine-2,3-diamine] | significantly decreased tumor growth | < 1 µM | < 1 µM | 81% | 62% |  | 
2 | Nc1oc2c(-c3ccncc3)nccc2c1Nc1ccc(F)c(Cl)c1 [Compound 97, N^3-(3-Chloro-4-fluorophenyl)-7-(pyridin-4-yl)furo[2,3-c]pyridine-2,3-diamine] |  |  |  | 81% | 67% | 26%-38 | 
3 | Nc1oc2c(-c3ccncc3)nccc2c1Nc1ccc(F)c(F)c1 [Compound 184, N^3-(3,4-difluorophenyl)-7-(pyridin-4-yl)furo[2,3-c]pyridine-2,3-diamine] |  | < 1 µM | < 1 µM |  |  |  | 26%-38
